The results in this text go back to patent publication US20050159312A1, “Tryptophan aminotransferase, indole-3-pyruvate decarboxylase and indole-3-acetaldehyde oxidase as novel targets for herbicides” (priority 2002, published 2005).

The test system of test [1] is indole-3-acetic acid (IEA) synthesis reaction. Description: Enzyme assay for inhibitors of indole-3-acetic acid (IEA, auxin) biosynthesis, enzyme extract from plant shoots. The test is classed as biochemical, Chenopodium album. On the procedure: To obtain the enzyme extract, 2 g of frozen plant shoots of Chenopodium album (common lambsquarters), which had been comminuted in a pestle and mortar under liquid nitrogen, were defrosted at room temperature in 3 ml of 100 mM EPPS extraction buffer (5 mM dithiothreitol, 6 μM pyridoxal phosphate, 10 μM leupeptin, 10 μM Pefabloc SC, pH 8.5) together with a spatula-tipfull of polyvinyl pyrrolidone in the course of 30 minutes with gentle stirring. Thereafter, the plant material was centrifuged for 10 minutes at 4° C. and the supernatant was desalinified on a Sephadex G-25 column (preequilibrated with 5 mM EPPS elution buffer (1 mM dithiothreitol, 6 μM pyridoxal phosphate, 10 μM Pefabloc SC, pH 8.5). The resulting enzyme extract (400 μl) was incubated in the test assay (volume 600 μl) for 2 hours at 37° C. in the presence of 20 μM pyridoxal phosphate, 80 mM EPPS extraction buffer, 50 μM L-tryptophan, 50 μM α-ketoglutarate and 50 μM indole with addition of 100 μl of EPPS extraction buffer and 6 μl of active ingredient solution (10 mM compound I in DMSO). The control without compound I was treated with the corresponding amount of DMSO. The reaction was subsequently stopped by addition of 20 μl 7.2N HCl and 3 ml of ethyl acetate. The control assays without incubation were placed on ice and immediately treated with HCl and ethyl acetate. After reextraction with 3 ml of ethyl acetate, the organic phases (6 ml) are combined and concentrated under a nitrogen stream, and the samples are methylated with diazomethane. […] Thereafter, the amount of IEA-Me was determined immunoanalytically by means of monoclonal antibodies (100% reactivity to IEA-Me); (method of Weiler E. W., Eberle J., Mertens R., Atzorn R., Feyerabend M., Jourdan P. S., Arnscheidt A., Wieczorek U., in: Immunology in Plant Science (Wang T. L., Ed.), Society for Experimental Biology, Seminar Series 29, Cambridge University Press, Cambridge, 1986, pp. 27-58) and used as measurement for the enzyme activities.

Another test relates to Pharbitis purpurea. Put plainly: Greenhouse herbicidal activity, post-emergence. The test is classed as in vivo. As to conditions: 1.0 kg a.s./ha. The source says:
(§1) The culture containers used were plastic pots comprising loamy sand with approximately 3.0% humus as substrate. The seeds of the test plants were sown separately for each species. For the post-emergence treatment, the test plants were first grown to a plant height of from 3 to 15 cm, depending on the plant habit, and only then treated with the active ingredients which had been suspended or emulsified in water. To this end, the test plants were either sown directly and grown in the same containers, or they were first grown separately as seedlings and transplanted into the test containers a few days prior to treatment. […] Depending on the species, the plants were kept at from 10-25° C. or 20-35° C., respectively. The test period extended over 2 to 4 weeks. During this time, the plants were attended, and their response to the individual treatments was evaluated. Evaluation was carried out using a scale of from 0 to 100. 100 means no emergence of the plants, or complete destruction of at least the aerial parts, while 0 means no damage, or normal course of growth. The plants used in the greenhouse experiments belong to the following species: [table]

Another test deals with Chenopodium album. Put plainly: Greenhouse herbicidal activity, post-emergence. The test is classed as in vivo. The note with it: 1.0 kg a.s./ha.
Source text: as §1

In another test the test system is Echinocloa crus-galli. Description: Greenhouse herbicidal activity, post-emergence. As to conditions: 1.0 kg a.s./ha. The test is classed as in vivo.
Source text: as §1

With `CNC(=O)C(CNC(=O)c1ccccc1F)NC(=O)c1ccc(C(F)(F)F)cc1F` (stereo not drawn) [compound I], the “pMol IEA-Me/g fresh shoot weight” value in test [1] (100 μM compound I, incubation 2 hours at 37° C., mean from three measurements) is recorded as 156.0 +/− 14.8 pMol IEA-Me/g fresh shoot weight. Besides, in test [1] (100 μM compound I, incubation 2 hours at 37° C., control value without incubation subtracted), the “Inhibition [%]” value is 73%. The “synthesis of indole-3-acetic acid from L-tryptophan” value in test [1] (in vitro) is “inhibited”. Moreover, the herbicidal efficiency result in the test with Pharbitis purpurea, with Chenopodium album and with Echinocloa crus-galli was “very good herbicidal efficiency” in each case.
